Assay results from patent publication US20040259765A1, “Formulations of non-steroidal anti-inflammatory agents to treat pathologic ocular angiogenesis” (priority 2003, published 2004).

System: retinal neovascularization
Test: rat pup model of retinopathy of prematurity (oxygen-induced retinopathy)
Assay type: in vivo
Conditions: local administration, FIG. 1
Description: FIG. 1. […] Anecortave acetate was tested for its angiostatic efficacy in a rat pup model of retinopathy of prematurity (Penn, at al., Investigative Ophthalmology & Visual Science, “The Effect of an Angiostatic Steroid on Neovascularization in a Rat Model of Retinopathy of Prematurity,” Vol. 42(1):283-290, January 2001). Newborn rat pups were placed in an atmosphere of varying oxygen content. The rats received a single intravitreal injection of vehicle or anecortave acetate (500 μg) upon return to room air (day 14) or 2 days later (day 16). There was significant retinal neovascularization in the rats that received vehicle injections.

## CC(=O)OCC(=O)[C@@]1(O)CC[C@H]2[C@@H]3CCC4=CC(=O)CC[C@]4(C)C3=CC[C@@]21C [Anecortave acetate, 4,9(11)-pregnadien-17α,21-diol-3,20dione-21-acetate]
  preretinal neovascularization (neovascular score): inhibits
